What was measured:
[1] = system: GL-26 murine glioma cells; assay: SRB growth assay of SBP and gold complexes on GL-26 (Example 4); assay type: cell-based, murine (C57BL/6); conditions: Mus musculus, GL26, 48 hr, read-out: concentration inhibiting GL-26 by 50%
Experimental: The murine (C57BL/6) glioma cell line, GL-26, which is highly tumorigenic in the C57BL/6 mice, was used. GL-26 cells were cultured in DMEM/F12 supplemented with 10% FCS, 1% penicillin/streptomycin, 1% L-glutamine and 1% non-essential amino acids. Human foreskin fibroblasts (HFFs) were cultured in DMEM/F12 supplemented with 10% FCS and 1% penicillin/streptomycin. Primary murine astrocytes were purified from C57BL/6 neonate brains and cultured in DMEM/F12 supplemented with 10% FCS, 1% non-essential amino acids, 1% L-glutamine, 50 IU/ml penicillin, […] and 10 mM Hepes buffer.
The sulforhodamine B (SRB) cytotoxicity assays were adapted from Skehan et al (21). Briefly, either HFF, primary astrocytes or GL-26 cells were plated in 96-well plates at a density of 4,000 cells/well in a volume of 100 µL overnight at 37° C. and 5% CO2. DMSO stock solutions of SBP, MSBP or TMZ were used at a concentration range of 0.1-25 μM for 48 hr before the supernatant was discarded and the cells were fixed for 1 hr with 10% cold trichloroacetic acid (100 μL per well). Cells used in recovery assay received fresh media for 48 hrs following the 48 hr drug incubation. […] Bound SRB was then read by absorbance at 492 nm on a SpectraMax plate reader (Molecular Devices). The percent survival was then calculated based upon the absorbance values relative to control wells (0 μM SBP in 0.1% DMSO).

GL-26 glioma = assay: In-vivo intracranial GL-26 glioma model; set-up: species or system C57BL/6 mice
Experimental: Female C57BL/6 mice were obtained from Jackson Laboratories and maintained in a pathogen free environment under IACUC established protocols at the University of California Riverside. Mice were anesthetized with continuous administration of 2.5% isofluorane. Cultured GL-26 cells were harvested by trypsinization and 90,000 GL-26 cells in 3 μL of sterile Na+/K+ balanced PBS were injected intracranially. The injection was administered 1 mm anterior and 2 mm lateral to the junction of the coronal and sagittal sutures (bregma), at a depth of 2 mm using a stereotactic mouse frame. Care was taken in alternating injection order and group assignment (treated vs. non-treated) to assure equal GL-26 cell viability between the two treatment groups. SBP was administered intravenously through the retro-orbital route at a concentration of 10 mg/kg in 200 μL sterile Na+/K+ balanced PBS. Drug was administered one, seven, and 13 days after tumor implantation.
Histology: For brain tumor histology, mice were perfused intracardially with 4% formaldehyde in Na+/K+ balanced PBS and brains were extracted, incubated in 4% formaldehyde overnight followed by 30% sucrose in Na+/K+ balanced PBS. Brains were flash frozen in isopentane, embedded in optimal cutting temperature compound (OCT), cryosectioned in coronal sections (12 μm) and stained with hematoxylin and eosin. Another cohort of equivalently drug-treated mice was used for liver, lung and gut histology. The mice were then sacrificed on day 19, and the liver, lung and gut tissues were collected and placed in 4% formaldehyde in Na+/K+ balanced PBS overnight. The organs were then placed for 48 hrs in 70% EtOH before paraffin embedding and sectioning at 6 μm. Sections were then stained with hematoxylin and eosin and pathology was assessed blindly and independently by a trained pathologist. A TUNEL staining kit was obtained from TREVIGEN (NeuroTACS II In Situ Apoptosis Detection Kit, Cat#4823-30-K) and used for both ex-vivo slices and in-vitro staining according to manufacturers instructions.

A549 lung cancer cells = assay: SRB colorimetric assay, A549 lung cancer cells, 72 hours; assay type: cell-based, human; conditions: Homo sapiens; A549, 72 hours, average ± SD of three curves
Experimental: A549 cells were cultured in RPMI media supplemented with 10% Fetal Bovine Serum and 1% nonessential amino acids. Sub-culturing was carried out every 3-4 days and was completed by removing the supernatant media and treating the adherent cells with 1.0 mL of a 0.25% (w/v) Trypsin/0.5 mM EDTA solution. The cells were then treated for approximately 3 minutes in a 37° C. incubator under a 5% CO2 atmosphere. Trypsinization was stopped by the addition of 7.0 mL of cell culture media, the suspended cells were collected by centrifugation, and the resulting cell pellet was re-suspended in fresh cell culture media. The cells were then diluted 1:4 by volume and incubated in a 37° C. incubator with 5% CO2. Cells were grown to 80-90% confluency prior to being used in the SRB colorimetric assays.
To test the effects of compounds 1-18 on the growth of A549 lung cancer cells, SRB cytotoxicity assays were done as described by Skehan et al. Cells were maintained in RPMI media as described above, collected, and diluted so that cells could be seeded in 96-well plates at a density of 4,000 cells/well. The 96-well plate was incubated overnight at 37° C. under a 5% CO2 atmosphere. Subsequently, sterifiltered DMSO stock solutions of the drugs were added to the wells in various concentrations (0-25 μM) and the 96-well plate was incubated at 37° C. under a 5% CO2 for an additional 72 hours. The supernatant cell culture medium was then removed and the cells were fixed for 1 hour with 10% cold trichloroacetic acid (100 μL per well). The trichloroacetic acid was discarded and the plates were washed 5 times with de-ionized water and air dried. After being stained with 0.4% SRB ([…]) and incubated at room temperature for 10 minutes, the cells were washed 5 times with 1% acetic acid and air dried. The bound SRB was dissolved in 10 mM unbuffered Tris, pH 10.5 ([…]) for 10 minutes at room temperature, and the absorbance at 492 nm was measured using a microplate reader. The percent cell growth was then calculated based upon the absorbance values relative to control samples not containing any drug. Each drug concentration was done in triplicate to yield a percent growth vs. drug concentration curve, and these growth curves were subsequently repeated two additional times. The growth curves from the three experiments were then plotted in GraphPad Prism and best-fit curves were used to generate the IC50 values for each curve.

IC50 [1]: 800 to 1600 nM
IC50 (A549 lung cancer cells): 420 ± 170 nM
SMILES: CCC(C)c1ccc2ccc3ccc(C(C)CC)nc3c2n1 (stereo not drawn) [Compound 1, 2,9-di-sec-butyl-1,10-phenanthroline]
body weight regained, % of initial weight (GL-26 glioma; 10 mg/kg i.v. days 1, 7, 13, 19-day trial): 98.1±3.4%
tumor section area (pixel area) at the largest tumor cross-section (GL-26 glioma; 10 mg/kg i.v. days 1, 7, 13, sacrificed day 19, N=3): 5489±1369
in situ TUNEL staining of brain tumor sections (GL-26 glioma; day 19): dark brown cytoplasmic and nuclear staining indicative of cell necrosis and increased DNA fragmentation
tumors in treated mice smaller than in untreated control mice (GL-26 glioma; mouse, in vivo): 5-10 times

— patent US20150125550A1, “APPLICATION OF 2,9-DI-SEC-BUTYL-1,10-PHENANTHROLINE AS A GLIOBLASTOMA TUMOR CHEMOTHERAPY” (priority 2013, published 2015)
